In patent publication US7416848B2, “DNA encoding SNORF25 receptor” (H. Lundbeck A/S, priority 1999, dated 2008):

Experiments:
[1] = system: mock-transfected CHO cells; assay: cAMP and IP release in mock-transfected CHO cells; type: cell-based, Chinese hamster
Procedure: CHO cells are grown on 150 mm plates in HAM's F-12 medium with supplements (10% bovine calf serum, 4 mM L-glutamine and 100 units/ml penicillin/100 μg/ml streptomycin) at 37° C., 5% CO2. Stock plates of CHO cells are trypsinized and split 1:8 every 3–4 days.
A typical protocol for the electroporation method as applied to Cos-7 cells is described as follows. Cells to be used for transfection are split 24 hours prior to the transfection to provide flasks which are subconfluent at the time of transfection. The cells are harvested by trypsinization resuspended in their growth media and counted. 5×10^6 cells are suspended in 300 μl of DMEM and placed into an electroporation cuvette. 8 μg of receptor DNA plus 8 μg of any additional DNA needed (e.g. G protein expression vector, reporter construct, antibiotic resistance marker, mock vector, etc.) is added to the cell suspension, the cuvette is placed into a BioRad Gene Pulser and subjected to an electrical pulse (Gene Pulser settings: 0.25 kV voltage, 950 μF capacitance). […]
The receptor-mediated stimulation or inhibition of cyclic AMP (cAMP) formation may be assayed in cells expressing the receptors. […] The plates are stored at 4° C. for 15 min, and the cAMP content in the stopping solution is measured by radioimmunoassay. Radioactivity may be quantified using a gamma counter equipped with data reduction software. […]

SNORF25 = biological target: T1, SNORF25 (Homo sapiens, UniProt Q8TDV5); assay: CFTR Cl- currents in Xenopus oocytes co-injected with SNORF25 and CFTR mRNA; type: cell-based; set-up: from linearized plasmids or PCR products containing the complete coding region of the genes; expressed in transfected cells; host or cells: Xenopus laevis oocytes injected with SNORF25 mRNA (with or without CFTR mRNA)
T1 sequence (Q8TDV5 1-335): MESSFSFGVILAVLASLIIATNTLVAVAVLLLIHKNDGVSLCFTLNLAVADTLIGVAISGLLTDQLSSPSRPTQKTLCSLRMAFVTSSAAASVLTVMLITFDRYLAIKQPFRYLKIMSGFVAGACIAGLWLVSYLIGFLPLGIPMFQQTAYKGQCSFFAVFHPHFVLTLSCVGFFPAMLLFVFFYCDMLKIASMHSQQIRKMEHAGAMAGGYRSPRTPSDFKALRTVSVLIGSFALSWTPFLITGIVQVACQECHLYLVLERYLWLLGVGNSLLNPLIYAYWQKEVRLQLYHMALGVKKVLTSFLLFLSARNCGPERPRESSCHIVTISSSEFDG
Procedure: Oocytes are harvested from Xenopus laevis and injected with mRNA transcripts as previously described (Quick and Lester, 1994; Smith et al., 1997). The test receptor of this invention and Gα subunit RNA transcripts are synthesized using the T7 polymerase (“Message Machine,” Ambion) from linearized plasmids or PCR products containing the complete coding region of the genes. Oocytes are injected with 10 ng synthetic receptor RNA and incubated for 3–8 days at 17 degrees. Three to eight hours prior to recording, oocytes are injected with 500 pg promiscuous Gα subunits mRNA in order to observe coupling to Ca^++ activated Cl^− currents.
Each of the compounds was tested at 10 μM. Oocytes expressing SNORF25 generated inward Cl^− currents, consistent with CFTR activation, in response to all four of the ligands.
The activity of SNORF25 was therefore tested in oocytes co-injected with mRNA encoding SNORF25 and mRNA encoding CFTR. In 17 out of 39 of these oocytes an inward Cl^− current (105±20 nA) was measured in response to the application of 10 μM all-trans-retinoic acid (See FIGS. 9A–9C and 10).

inward Cl- current amplitude (SNORF25; 10 μM, oocytes with SNORF25 and CFTR mRNA): 105±20 nA | delay for activation of CFTR (SNORF25; SNORF25-expressing oocytes): ~10 s
Compound: CC1=C(/C=C/C(C)=C/C=C/C(C)=C/C(=O)O)C(C)(C)CCC1 [ATRA, all-trans-retinoic acid]
cAMP and IP release in mock-transfected CHO cells [1]: without affecting these parameters
